# Laboratory results from patent EP0504184B1, “ACTIVE AGENT AGAINST RETROVIRUS GROUP VIRUSES, COMPOSITIONS CONTAINING SAME AND THEIR USE” (PREVISAN S.A., priority 1989, dated 1991).
# What was measured:
# Type in all cases: cell-based
# virus VIH-1 = assay: Infectivity of pretreated HIV-1 virus for the Supt-1 line (p24 antigen in cell lysates, optical density; phase-contrast microscopy); conditions: virus incubated 30 minutes with chloroazodine 1/3000, p24 in Supt-1 lysates
# From the text: Ces essais comprennent comme matériel de départ : • de la N, N'-dichloroazodicarbonamidine (chloroazodine) à 95 % pure. La pureté a été examinée par chromatographie en couche mince et par un test de carbone-hydrogène (v. BRAZ G.I. et cons., J. Applied Chem. (USSR) 17,565-9 (1944)). • un surnageant de cultures de cellules (Molt-3) continuellement productrices de virus VIH-1. Le surnageant viral utilisé a une activité de transcriptase inverse de 1 x 10^6 cpm/ml. • des cellules d'une lignée T humaine continue de phénotype T4 (Supt-1) cultivée en milieu RPMI, additionné de 10 % de sérum de veau foetal et de 1 % de glutamine.
# L' efficacité de la chloroazodine va être étudiée à deux niveaux : • a) action sur l'infectivité du virus VIH-1 pour la lignée Supt-1. • b) action sur l'intégration du génome viral dans l'ADN chromosomial des cellules Supt-1.
# On fait incuber des préparations virales de VIH-1 à haut titre en présence de dilutions de chloroazodine de 1/1500 et de 1/3000 et pendant différents temps d'incubation. Pendant 30 minutes à 37°C, on traite préalablement les cellules Supt-1 par 10 µg/ml de polybrène, puis on les inocule avec les préparations de virus traités. On prévoit comme témoins, des cellules non inoculées, et des cellules inoculées par une préparation de virus non traités.
# On détermine ensuite l'infectivité, à chaque passage cellulaire, de ces préparations en suivant la production virale (mesure de l'antigène p24 exprimé) dans les lysats cellulaires solubilisés des cellules Supt-1 examinées.
# Les mesures du pouvoir infectieux du virus VIH-1 après incubation avec de la chloroazodine ressortent des tableaux 1 à 3 suivants, ainsi que des figures 1 à 3 qui correspondent aux tableaux 1 à 3. Sur ces figures, on trouve en ordonnée la densité optique (D.O.) et en abscisse le nombre de jours après l'infection. Le trait plein représente le témoin non traite, le trait interrompu la dilution de 1/1500 de chloroazodine, et le trait pointillé la dilution de 1/3000 de chloroazodine.
# provirus VIH-1 = assay: Integration of the viral genome into chromosomal DNA of Supt-1 cells (PCR of gag, LTR, env; hybridisation with P32 probes); conditions: for provirus VIH-1 dans les cellules Supt-1: hybridisation with P32 probes for gag, LTR, env
# From the text: Intégration du génome viral dans l'ADN chromosomial des cellules Supt-1.
# Par amplification génétique grâce à une polymérase thermostable, on met en évidence la présence des gènes "gag", "LTR" et "env" du provirus VIH-1. Cette technique est appelée P.C.R. (Polymerase Chain Reaction) (CHIN-YIH OU et cons., Sciences, 239, 295-297, 1988).
# Cette technique est appliquée pour la détection du provirus VIH-1 dans le génome des cellules Supt-1 inoculées par du virus VIH-1 incubé avec de la chloroazodine, comme décrit dans l'exemple 4.
# [1] = tested on: virus VIH-1 dans des cellules Molt-3 B; assay: p24 antigen in culture supernatants of treated Molt-3 B cells continuously producing HIV (optical density); conditions: for Mesure du pouvoir infectieux des virus VIH-1 dans des cellules Molt-3 B (densité optique): p24 in supernatant
# Method: Des cellules Molt-3 B, continuellement productrices de virus VIH, ont été traitées par de la chloroazodine à des concentrations de 1/1500 et 1/3000 pendant des périodes de 1 minute, 10 minutes et 30 minutes.
# Les antigènes p 24 exprimes dans les surnageants de culture ont été évalués après 24 h., 48 h., 72 h. et 96 h.
# Pour mesurer cet effet en contournant la toxicité du produit pour les cellules infectées, on a choisi de prendre un nombre cellulaire extraordinairement élevé de manière à conserver un nombre très faible, mais suffisant, de cellules vivantes après 96 h. Tableau 5
# [2] = tested on: virus VIH-1 dans des lymphocytes humains infectés; assay: p24 antigen of treated HIV-1 infected human lymphocytes (optical density); conditions: chloroazodine 1/3000
# From the text: On a reproduit l'expérience de l'exemple 7, mais avec des lymphocytes humains infectés par du VIH-1. La chloroazodine a été utilisée à la dose de 1/3000 pendant 1 heure, 3 heures et 6 heures sur les cellules infectées. Tableau 6
# Afin de conserver un nombre suffisant de lymphocytes vivants il a fallu limiter l'expérimentation à 6 heures.
smiles,measurement,setting,value
"NC(N=NC(N)=NCl)=NCl [chloroazodine, N, N'-dichloroazodicarbonamidine]",Mesure d'infectivité du virus VIH-1 (D.O.492),virus VIH-1; 21 days after infection,"0,169 ± 0,000"
same,Mesure d'infectivité du virus VIH-1 (D.O.492),virus VIH-1; 24 days after infection,"0,172 ± 0,031"
same,oligonucléotides amplifiés et visibles aux UV,"provirus VIH-1; PCR, ethidium bromide",apparaissent uniquement dans les tubes à essais qui correspondent à une inoculation par du virus VIH-1 non traité à la chloroazodine
same,provirus VIH-1 dans les cellules Supt-1,provirus VIH-1; virions treated at dilution 1/1500,absence totale de provirus VIH-1
same,provirus VIH-1 dans les cellules Supt-1,provirus VIH-1; virions treated at dilution 1/3000,absence totale de provirus VIH-1
same,Mesure du pouvoir infectieux des virus VIH-1 dans des cellules Molt-3 B (densité optique),"[1]; chloroazodine 1/1500, treatment 1 min, 24 h. after treatment","0,175"
same,Mesure du pouvoir infectieux des virus VIH-1 dans des cellules Molt-3 B (densité optique),"[1]; chloroazodine 1/1500, treatment 1 min, 48 h. after treatment","0,175"
same,Mesure du pouvoir infectieux des virus VIH-1 dans des cellules Molt-3 B (densité optique),"[1]; chloroazodine 1/1500, treatment 1 min, 72 h. after treatment","0,167"
same,Mesure du pouvoir infectieux des virus VIH-1 dans des cellules Molt-3 B (densité optique),"[1]; chloroazodine 1/1500, treatment 10 min, 24 h. after treatment","0,182"
same,Mesure du pouvoir infectieux des virus VIH-1 dans des cellules Molt-3 B (densité optique),"[1]; chloroazodine 1/1500, treatment 10 min, 48 h. after treatment","0,181"
same,Mesure du pouvoir infectieux des virus VIH-1 dans des cellules Molt-3 B (densité optique),"[1]; chloroazodine 1/1500, treatment 10 min, 72 h. after treatment","0,145"
same,Mesure du pouvoir infectieux des virus VIH-1 dans des cellules Molt-3 B (densité optique),"[1]; chloroazodine 1/1500, treatment 30 min, 24 h. after treatment","0,194"
same,Mesure du pouvoir infectieux des virus VIH-1 dans des cellules Molt-3 B (densité optique),"[1]; chloroazodine 1/1500, treatment 30 min, 48 h. after treatment","0,155"
same,Mesure du pouvoir infectieux des virus VIH-1 dans des cellules Molt-3 B (densité optique),"[1]; chloroazodine 1/1500, treatment 30 min, 72 h. after treatment","0,173"
same,Mesure du pouvoir infectieux des virus VIH-1 dans des cellules Molt-3 B (densité optique),"[1]; chloroazodine 1/3000, treatment 1 min, 24 h. after treatment","0,247"
same,Mesure du pouvoir infectieux des virus VIH-1 dans des cellules Molt-3 B (densité optique),"[1]; chloroazodine 1/3000, treatment 1 min, 48 h. after treatment","0,154"
same,Mesure du pouvoir infectieux des virus VIH-1 dans des cellules Molt-3 B (densité optique),"[1]; chloroazodine 1/3000, treatment 1 min, 72 h. after treatment","0,170"
same,Mesure du pouvoir infectieux des virus VIH-1 dans des cellules Molt-3 B (densité optique),"[1]; chloroazodine 1/3000, treatment 10 min, 24 h. after treatment","0,180"
same,Mesure du pouvoir infectieux des virus VIH-1 dans des cellules Molt-3 B (densité optique),"[1]; chloroazodine 1/3000, treatment 10 min, 48 h. after treatment","0,176"
same,Mesure du pouvoir infectieux des virus VIH-1 dans des cellules Molt-3 B (densité optique),"[1]; chloroazodine 1/3000, treatment 10 min, 72 h. after treatment","0,152"
same,Mesure du pouvoir infectieux des virus VIH-1 dans des cellules Molt-3 B (densité optique),"[1]; chloroazodine 1/3000, treatment 30 min, 24 h. after treatment","0,211"
same,Mesure du pouvoir infectieux des virus VIH-1 dans des cellules Molt-3 B (densité optique),"[1]; chloroazodine 1/3000, treatment 30 min, 48 h. after treatment","0,162"
same,Mesure du pouvoir infectieux des virus VIH-1 dans des cellules Molt-3 B (densité optique),"[1]; chloroazodine 1/3000, treatment 30 min, 72 h. after treatment","0,176"
same,production de VIH par des cellules infectées,"[1]; conclusion of example 7, Molt-3 B cells, chloroazodine 1/1500 and 1/3000",capable d'empêcher la production de VIH par des cellules infectées
same,Mesure du pouvoir infectieux des virus VIH-1 dans des lymphocytes humains infectés (densité optique),"[2]; treatment 1 hour, 4 days after treatment","0,170"
same,Mesure du pouvoir infectieux des virus VIH-1 dans des lymphocytes humains infectés (densité optique),"[2]; treatment 1 hour, 7 days after treatment","0,170"
same,Mesure du pouvoir infectieux des virus VIH-1 dans des lymphocytes humains infectés (densité optique),"[2]; treatment 1 hour, 11 days after treatment","0,114"
same,Mesure du pouvoir infectieux des virus VIH-1 dans des lymphocytes humains infectés (densité optique),"[2]; treatment 3 hours, 4 days after treatment","0,197"
same,Mesure du pouvoir infectieux des virus VIH-1 dans des lymphocytes humains infectés (densité optique),"[2]; treatment 3 hours, 7 days after treatment","0,158"
same,Mesure du pouvoir infectieux des virus VIH-1 dans des lymphocytes humains infectés (densité optique),"[2]; treatment 3 hours, 11 days after treatment","0,095"
same,Mesure du pouvoir infectieux des virus VIH-1 dans des lymphocytes humains infectés (densité optique),"[2]; treatment 6 hours, 4 days after treatment","0,192"
same,Mesure du pouvoir infectieux des virus VIH-1 dans des lymphocytes humains infectés (densité optique),"[2]; treatment 6 hours, 7 days after treatment","0,203"
same,Mesure du pouvoir infectieux des virus VIH-1 dans des lymphocytes humains infectés (densité optique),"[2]; treatment 6 hours, 11 days after treatment","0,078"
